Source: patent publication US20250049776A1, “AUTOPHAGY INDUCING COMPOUNDS AND USES THEREOF, IN PARTICULAR FOR A SYSTEMIC TREATMENT OF DISEASES AND CONDITIONS” (Samsara Therapeutics Inc., priority 2021, published 2025)
Like-named read-outs stand apart in the source and are kept apart here.

System: Human osteosarcoma U20S cells
Experiment: Assay to measure lysosome and autolysosome formation (acidic vesicle formation, LysoView/LysoTracker staining)
Assay type: cell-based
Details: for activation at 0.8 µM: Homo sapiens, U2OS cells, concentration of 0.8 μM; for increase in acidic vesicle formation: U20S cells, relative to DMSO-treated control (10 μM)
Procedure: Lysosomes play a fundamental role in the autophagic pathway by fusing with autophagosomes and creating ‘autolysosomes’ in order to digest their contents. Stimulation of lysosome and autolysosome formation by a compound is indicative of a stimulation of autophagy. The ability of compounds to stimulate lysosome and autolysosome formation, and thus autophagy, in live cells was assessed via fluorescent microscopy using various fluorescent stains for labelling and tracking acidic organelles (including lysosomes and autolysosomes) such as: LysoView™ 650 (70059 and 70059-T, Biotium), LysoViewTM633 (70058 and 70058-T, Biotium) and LysoTracker™ Deep Red (L12492, ThermoFisher Scientific). The cellular phenotype was quantitatively assessed for the induction of acidic vesicle formation and compared to a non-treated control, thus providing a measure of the ability of the compound under investigation to stimulate autophagy.
Representative procedure using LysoView™633 dye or LysoTracker™ Deep Red dye: Human osteosarcoma U20S cells (40,000 cells/well) were seeded in a 24 well glass bottom plate (Sensoplate, Greiner Bio-One) and were incubated overnight in a humidified atmosphere at 37° C. and 5% CO2. Cells were grown in DMEM (Gibco) supplemented with 10% Fetal Bovine Serum (FBS) and 100 units/ml penicillin and 100 μg/ml streptomycin (Invitrogen). After the attachment period, cells were treated with different compounds of interest (at various concentrations in DMSO) or DMSO (non-treated control) in cell culture medium and were incubated for 24 hours. Compound-containing medium was removed and cells were incubated with pre-warmed cell culture medium containing 1× LysoView™ 633 (70058 and 70058-T, Biotium) or 50 nM LysoTracker™ Deep Red (L12492, ThermoFisher Scientific) for 45 minutes at 37° C. Finally, cell nuclei were stained for 10 minutes using Hoechst 33342 (1 μg/mL) and then the medium was replaced with fresh medium. The 24 well plate was then fitted into a heated stage on the microscope and cells maintained at 37° C. Images were captured using appropriate filter set for Cy5 and DAPI detection with the EVOS M7000 Microscope (ThermoFisher Scientific). The cellular phenotype was visually assessed for the induction of acidic vesicle formation relative to the non-treated control; multiple images were acquired and analyzed using ImageJ or Cell Profiler.

[1] = read-out: Activity (percentage increase in acidic vesicle formation over the DMSO-treated control), Table 2
[2] = read-out: Activity (percentage increase in acidic vesicle formation), Table 2a Preferred compounds

SMILES: CCCN(C(=O)c1csc(-c2cnn(-c3ccc(Cl)cc3)c2)n1)[C@H]1CCNC1 [Compound 40, 2-[1-(4-chlorophenyl)-1H-pyrazol-4-yl]-N-propyl-N-[(3S)-pyrrolidin-3-yl]-1,3-thiazole-4-carboxamide]
- activation at 0.8 µM [1]: 10 to 30%

SMILES: NC[C@H]1CCCN1C(=O)c1csc(-c2cnn(-c3ccc(C(F)(F)F)cc3)c2)n1 [Compound 76, 1-[(2R)-1-(2-{1-[4-(trifluoromethyl)phenyl]-1H-pyrazol-4-yl}-1,3-thiazole-4-carbonyl)pyrrolidin-2-yl]methanamine]
- activation at 0.8 µM [1]: 10 to 30%

SMILES: CC(C)N(C(=O)c1csc(-c2cnn(-c3ccccc3)c2)n1)[C@@H]1CCNC1 [Compound 312, 2-(1-phenyl-1H-pyrazol-4-yl)-N-(propan-2-yl)-N-[(3R)-pyrrolidin-3-yl]-1,3-thiazole-4-carboxamide]
- activation at 0.8 µM [1]: 50 to 100%

SMILES: CCCN(C(=O)c1cc(-c2cnn(-c3ccccc3)c2)cs1)C1CCNC1 (centres unmarked) [Compound 141, 4-(1-phenyl-1H-pyrazol-4-yl)-N-propyl-N-(pyrrolidin-3-yl)thiophene-2-carboxamide]
- activation at 0.8 µM [1]: 50 to 100%
- activation at 0.8 µM [2]: 50 to 100%

SMILES: CCCN(C(=O)c1csc(-c2cnn(-c3cccc(F)c3)c2)n1)[C@H]1CCNC1 [Compound 52, 2-[1-(3-fluorophenyl)-1H-pyrazol-4-yl]-N-propyl-N-[(3S)-pyrrolidin-3-yl]-1,3-thiazole-4-carboxamide]
- activation at 0.8 µM [1]: 10 to 30%

SMILES: CCCN(C(=O)c1csc(-c2cnn(-c3ccccc3)c2)c1)[C@H]1CCNC1 [Compound 42, 5-(1-phenyl-1H-pyrazol-4-yl)-N-propyl-N-[(3S)-pyrrolidin-3-yl]thiophene-3-carboxamide]
- activation at 0.8 µM [1]: 10 to 30%

SMILES: Cc1ccccc1-n1cc(-c2nc(C(=O)N(C(C)C)C3CCNCC3)cs2)cn1 [Compound 84, 2-[1-(2-methylphenyl)-1H-pyrazol-4-yl]-N-(piperidin-4-yl)-N-(propan-2-yl)-1,3-thiazole-4-carboxamide]
- activation at 0.8 µM [1]: 10 to 30%

SMILES: CCCN(C(=O)c1csc(-c2cnn(-c3ccccc3)c2)c1)C1CCNC1 (centres unmarked) [Compound 130, 5-(1-phenyl-1H-pyrazol-4-yl)-N-propyl-N-(pyrrolidin-3-yl)thiophene-3-carboxamide]
- activation at 0.8 µM [1]: 10 to 30%

SMILES: CCCN(C(=O)c1ccc(-c2cnn(-c3ccccc3)c2)[nH]1)C1CCNC1 (centres unmarked) [Compound 120, 5-(1-phenyl-1H-pyrazol-4-yl)-N-propyl-N-(pyrrolidin-3-yl)-1H-pyrrole-2-carboxamide]
- activation at 0.8 µM [1]: 50 to 100%
- activation at 0.8 µM [2]: 50 to 100%

SMILES: CC(C)N(C(=O)c1cc(-c2cnn(-c3ccccc3)c2)c[nH]1)[C@@H]1CCNC1 [Compound 334, 4-(1-phenyl-1H-pyrazol-4-yl)-N-(propan-2-yl)-N-[(3R)-pyrrolidin-3-yl]-1H-pyrrole-2-carboxamide]
- activation at 0.8 µM [1]: 30 to 50%
- increase in acidic vesicle formation: only a slight increase

SMILES: CC(C)N(C(=O)c1csc(-c2cnn(-c3ccccc3C(F)(F)F)c2)n1)C1CCNCC1 [Compound 47, N-(piperidin-4-yl)-N-(propan-2-yl)-2-{1-[2-(trifluoromethyl)phenyl]-1H-pyrazol-4-yl}-1,3-thiazole-4-carboxamide]
- activation at 0.8 µM [1]: 30 to 50%

SMILES: CCCN(C(=O)c1csc(-c2cnn(-c3ccccc3Cl)c2)n1)[C@@H]1CCNC1 [Compound 90, 2-[1-(2-chlorophenyl)-1H-pyrazol-4-yl]-N-propyl-N-[(3R)-pyrrolidin-3-yl]-1,3-thiazole-4-carboxamide]
- activation at 0.8 µM [1]: 10 to 30%

SMILES: NC[C@H]1CCCN1C(=O)c1ccc(-c2cnn(-c3ccccc3)c2)o1 [Compound 11, 1-[(2R)-1-[5-(1-phenyl-1H-pyrazol-4-yl)furan-2-carbonyl]pyrrolidin-2-yl]methanamine]
- activation at 0.8 µM [1]: 10 to 30%

SMILES: CCCN(C(=O)c1csc(-c2cnn(-c3ccc(F)cc3)c2)n1)[C@@H]1CCNC1 [Compound 54, 2-[1-(4-fluorophenyl)-1H-pyrazol-4-yl]-N-propyl-N-[(3R)-pyrrolidin-3-yl]-1,3-thiazole-4-carboxamide]
- activation at 0.8 µM [1]: 10 to 30%

SMILES: CCCN(C(=O)c1csc(-c2cnn(-c3cccc(C)c3)c2)n1)[C@H]1CCNC1 [Compound 28, 2-[1-(3-methylphenyl)-1H-pyrazol-4-yl]-N-propyl-N-[(3S)-pyrrolidin-3-yl]-1,3-thiazole-4-carboxamide]
- activation at 0.8 µM [1]: 10 to 30%

SMILES: CCCN(C(=O)c1csc(-c2cnn(-c3ccc(C)cc3)c2)n1)[C@@H]1CCNC1 [Compound 65, 2-[1-(4-methylphenyl)-1H-pyrazol-4-yl]-N-propyl-N-[(3R)-pyrrolidin-3-yl]-1,3-thiazole-4-carboxamide]
- activation at 0.8 µM [1]: 30 to 50%

SMILES: CC(C)N(C(=O)c1csc(-c2cnn(-c3ncccn3)c2)n1)C1CCNCC1 [Compound 329, N-(piperidin-4-yl)-N-(propan-2-yl)-2-[1-(pyrimidin-2-yl)-1H-pyrazol-4-yl]-1,3-thiazole-4-carboxamide]
- increase in acidic vesicle formation: only a slight increase

SMILES: Cc1ccc(-n2cc(-c3nc(C(=O)N(C(C)C)C4CCNCC4)cs3)cn2)cc1 [Compound 57, 2-[1-(4-methylphenyl)-1H-pyrazol-4-yl]-N-(piperidin-4-yl)-N-(propan-2-yl)-1,3-thiazole-4-carboxamide]
- activation at 0.8 µM [1]: 30 to 50%

SMILES: CCCN(C(=O)c1csc(-c2cnn(-c3ccccc3C(F)(F)F)c2)n1)[C@H]1CCNC1 [Compound 82, N-propyl-N-[(3S)-pyrrolidin-3-yl]-2-{1-[2-(trifluoromethyl)phenyl]-1H-pyrazol-4-yl}-1,3-thiazole-4-carboxamide]
- activation at 0.8 µM [1]: 30 to 50%

SMILES: CCCN(C(=O)c1csc(-c2cnn(-c3cccc(OC)c3)c2)n1)[C@H]1CCNC1 [Compound 51, 2-[1-(3-methoxyphenyl)-1H-pyrazol-4-yl]-N-propyl-N-[(3S)-pyrrolidin-3-yl]-1,3-thiazole-4-carboxamide]
- activation at 0.8 µM [1]: 30 to 50%

SMILES: CCCN(C(=O)c1cc(-c2cnn(-c3ccccc3)c2)cs1)[C@H]1CCNC1 [Compound 59, 4-(1-phenyl-1H-pyrazol-4-yl)-N-propyl-N-[(3S)-pyrrolidin-3-yl]thiophene-2-carboxamide]
- activation at 0.8 µM [1]: 10 to 30%

SMILES: CC(C)N(C(=O)c1csc(-c2cnn(-c3ccccc3Cl)c2)n1)C1CCNCC1 [Compound 66, 2-[1-(2-chlorophenyl)-1H-pyrazol-4-yl]-N-(piperidin-4-yl)-N-(propan-2-yl)-1,3-thiazole-4-carboxamide]
- activation at 0.8 µM [1]: 10 to 30%

SMILES: O=C(c1csc(-c2cnn(-c3ccccc3)c2)n1)N1C[C@H]2C[C@@H]1CN2 [Compound 326, (1R,4R)-2-[2-(1-phenyl-1H-pyrazol-4-yl)-1,3-thiazole-4-carbonyl]-2,5-diazabicyclo[2.2.1]heptane]
- activation at 0.8 µM [1]: 50 to 100%

SMILES: CC(C)N(C(=O)c1csc(-c2cnn(-c3ccccn3)c2)n1)C1CCNCC1 [Compound 307, N-(piperidin-4-yl)-N-(propan-2-yl)-2-[1-(pyridin-2-yl)-1H-pyrazol-4-yl]-1,3-thiazole-4-carboxamide]
- activation at 0.8 µM [1]: 50 to 100%

SMILES: O=C(NC[C@@H]1CCNC1)c1cc(-c2cnn(-c3ccccc3)c2)cs1 [Compound 16, 4-(1-phenyl-1H-pyrazol-4-yl)-N-{[(3R)-pyrrolidin-3-yl]methyl}thiophene-2-carboxamide]
- activation at 0.8 µM [1]: 10 to 30%

SMILES: Cc1ccccc1-n1cc(-c2nc(C(=O)N3CCC[C@@H]3CN)cs2)cn1 [Compound 86, 1-[(2R)-1-{2-[1-(2-methylphenyl)-1H-pyrazol-4-yl]-1,3-thiazole-4-carbonyl}pyrrolidin-2-yl]methanamine]
- activation at 0.8 µM [1]: 30 to 50%
